Measured values published in patent publication US20110130380A1, “Heteroaryl Kinase Inhibitors” (priority 2009, published 2011).

Molecular target: Cdk9/cyclinT1 (Homo sapiens, UniProt P50750)
Experiment: Cdk9/cyclinT1 IMAP Protocol (fluorescence polarization kinase assay)
Conditions: Cdk9_cyclinT1_IC50, Table V; generated using one of the two Cdk9/cyclinT1 assays (IMAP or Alpha Screen), not stated which; ATP 6 uM

Chain of Cdk9/cyclinT1 (P50750 whole entry): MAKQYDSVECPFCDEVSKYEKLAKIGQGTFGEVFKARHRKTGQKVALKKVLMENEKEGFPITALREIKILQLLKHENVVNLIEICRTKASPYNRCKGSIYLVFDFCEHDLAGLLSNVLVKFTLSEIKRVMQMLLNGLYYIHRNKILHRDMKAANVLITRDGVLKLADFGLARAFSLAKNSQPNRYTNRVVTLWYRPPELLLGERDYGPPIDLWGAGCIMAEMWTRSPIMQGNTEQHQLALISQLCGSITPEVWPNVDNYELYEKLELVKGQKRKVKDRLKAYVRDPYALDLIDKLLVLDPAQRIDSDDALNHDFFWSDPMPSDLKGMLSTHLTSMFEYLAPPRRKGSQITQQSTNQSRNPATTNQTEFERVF
Chain of Cdk9/cyclinT1 (O60563 whole entry partner): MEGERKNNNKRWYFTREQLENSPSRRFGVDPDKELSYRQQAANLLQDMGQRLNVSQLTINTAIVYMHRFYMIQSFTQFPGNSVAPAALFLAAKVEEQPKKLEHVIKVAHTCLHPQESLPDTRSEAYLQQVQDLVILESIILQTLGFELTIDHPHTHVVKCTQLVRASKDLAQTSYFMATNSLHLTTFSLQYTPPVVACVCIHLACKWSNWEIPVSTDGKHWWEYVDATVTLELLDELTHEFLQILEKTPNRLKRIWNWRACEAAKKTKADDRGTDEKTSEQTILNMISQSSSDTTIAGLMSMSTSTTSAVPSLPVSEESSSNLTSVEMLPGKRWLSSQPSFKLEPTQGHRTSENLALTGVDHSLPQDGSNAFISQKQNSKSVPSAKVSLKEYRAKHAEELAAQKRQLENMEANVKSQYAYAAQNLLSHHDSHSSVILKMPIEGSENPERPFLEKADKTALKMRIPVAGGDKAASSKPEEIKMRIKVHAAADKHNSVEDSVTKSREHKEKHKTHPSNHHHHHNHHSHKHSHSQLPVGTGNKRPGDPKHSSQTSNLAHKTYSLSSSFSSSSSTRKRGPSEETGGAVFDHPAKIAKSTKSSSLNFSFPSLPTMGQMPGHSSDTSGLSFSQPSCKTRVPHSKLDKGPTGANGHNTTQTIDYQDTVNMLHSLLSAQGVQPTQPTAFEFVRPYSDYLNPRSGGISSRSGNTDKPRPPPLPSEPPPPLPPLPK

Structure (SMILES)	IC50 [nM]
C[C@H]1CNC[C@H](C(=O)Nc2cc(-c3cccc(NCC4CCOCC4)n3)c(Cl)cn2)C1 (racemic) [Example 104, (3R,5R)-/(3S,5S)-5-Methyl-piperidine-3-carboxylic acid {5′-chloro-6-[(tetrahydro-pyran-4-ylmethyl)-amino]-[2,4′]bipyridinyl-2′-yl}-amide]	46
CCS(=O)(=O)N1CCC[C@H](C(=O)Nc2cc(-c3cccc(NCC4CCOCC4)n3)c(Cl)cn2)C1 [Example 92, (S)-1-Ethanesulfonyl-piperidine-3-carboxylic acid {5′-chloro-6-[(tetrahydro-pyran-4-ylmethyl)-amino]-[2,4′]bipyridinyl-2′-yl}-amide]	< 8
O=C(Nc1cc(-c2nc(NCC3CCOCC3)ccc2Cl)c(Cl)cn1)C1CCOCC1 [Example 97, Tetrahydro-pyran-4-carboxylic acid {3,5′-dichloro-6-[(tetrahydro-pyran-4-ylmethyl)-amino]-[2,4′]bipyridinyl-2′-yl}-amide]	10
COCCN1CCC[C@@H](C(=O)Nc2cc(-c3cccc(NCC4CCOCC4)n3)c(Cl)cn2)C1 [Example 16, (R)-1-(2-Methoxy-ethyl)-piperidine-3-carboxylic acid {5′-chloro-6-[(tetrahydro-pyran-4-ylmethyl)-amino]-[2,4′]bipyridinyl-2′-yl}-amide]	855
CC1(C(=O)Nc2cc(-c3cccc(NCC4CCOCC4)n3)c(Cl)cn2)CNCCO1 (centres unmarked) [Example 145, 2-Methyl-morpholine-2-carboxylic acid {5′-chloro-6-[(tetrahydro-pyran-4-ylmethyl)-amino]-[2,4′]bipyridinyl-2′-yl}-amide]	785
O=C(Nc1cc(-c2cccc(NCC3CCCOC3)n2)c(Cl)cn1)[C@H]1CCCNC1 (stereo partly drawn) [Example 46, (S)-Piperidine-3-carboxylic acid {5′-chloro-6-[(tetrahydro-pyran-3-ylmethyl)-amino]-[2,4′]bipyridinyl-2′-yl}-amide]	56
COC(=O)N1CCC[C@H](C(=O)Nc2cc(-c3cccc(NCC4CCS(=O)(=O)CC4)n3)c(Cl)cn2)C1 [Example 152, (S)-3-{5′-Chloro-6-[(1′,1′-dioxo-hexahydro-1-thiopyran-4-ylmethyl)-amino]-[2,4′]bipyridinyl-2′-ylcarbamoyl}-piperidine-1-carboxylic acid methyl ester]	< 8
CN1CCCCC(C(=O)Nc2cc(-c3cccc(NCC4CCOCC4)n3)c(Cl)cn2)C1 (centres unmarked) [Example 199, 1-Methyl-azepane-3-carboxylic acid {5′-chloro-6-[(tetrahydro-pyran-4-ylmethyl)-amino]-[2,4′]bipyridinyl-2′-yl}-amide]	51
O=C(Nc1cc(-c2cccc(NCC3CC3)n2)c(Cl)cn1)[C@@H]1CCCNC1 [Example 20, (R)-Piperidine-3-carboxylic acid [5′-chloro-6-(cyclopropylmethyl-amino)-[2,4′]bipyridinyl-2′-yl]-amide]	44
O=C(Nc1cc(-c2cccc(NCC3CCOCC3)n2)c(Cl)cn1)[C@@H]1CC[C@@H](C(F)(F)F)NC1 (racemic) [Example 161, (3R,6S)-/(3S,6R)-6-Trifluoromethyl-piperidine-3-carboxylic acid {5′-chloro-6-[(tetrahydro-pyran-4-ylmethyl)-amino]-[2,4′]bipyridinyl-2′-yl}-amide]	9
O=C(Nc1cc(-c2cccc(NCC3CCS(=O)(=O)CC3)n2)c(Cl)cn1)[C@@H]1CCCNC1 [Example 12, (R)-piperidine-3-carboxylic acid {5′-chloro-6-[(1′,1′-dioxo-hexahydro-1-thiopyran-4-ylmethyl)-amino]-[2,4′]bipyridinyl-2′-yl}-amide]	< 8
O=C(Nc1cc(-c2cccc(NCC3CCOCC3)n2)c(Cl)cn1)[C@H]1CCCO1 [Example 68, (R)-Tetrahydro-furan-2-carboxylic acid {5′-chloro-6-[(tetrahydro-pyran-4-ylmethyl)-amino]-[2,4′]bipyridinyl-2′-yl}-amide]	11
CC(C)CNc1cccc(-c2cc(NC(=O)[C@@H]3CCCNC3)ncc2Cl)n1 [Example 22, (R)-Piperidine-3-carboxylic acid (5′-chloro-6-isobutylamino-[2,4′]bipyridinyl-2′-yl)-amide]	33
O=C(Nc1cc(-c2cccc(N3CCC(c4ccccc4)CC3)n2)c(Cl)cn1)[C@@H]1CCCNC1 [Example 42, (R)-Piperidine-3-carboxylic acid (5″- chloro-4-phenyl-3,4,5,6-tetrahydro-2H-[1,2′;6′,4″]terpyridin-2″- yl)-amide]	42
C[C@@H]1CC[C@H](C(=O)Nc2cc(-c3cccc(NCC4CCOCC4)n3)c(Cl)cn2)CN1 (single isomer, unassigned) [Example 142]	151
C[C@@H](Nc1cccc(-c2cc(NC(=O)[C@@H]3CCCNC3)ncc2Cl)n1)C1CCOCC1 [Example 137, (R)-Piperidine-3-carboxylic acid {5′-chloro-6-[(R)-1-(tetrahydro-pyran-4-yl)-ethylamino]-[2,4′]bipyridinyl-2′-yl}-amide]	11
O=C(Nc1cc(-c2cccc(NCC3CCCCC3)n2)c(Cl)cn1)[C@@H]1CCCNC1 [Example 17, (R)-Piperidine-3-carboxylic acid [5′-chloro-6-(cyclohexylmethyl-amino)-[2,4′]bipyridinyl-2′-yl]-amide]	< 8
O=C(Nc1cc(-c2cccc(NCC3CCOCC3)n2)c(Cl)cn1)[C@H]1CNC[C@H]1F [Example 85, (3R,4S)-4-Fluoro-pyrrolidine-3-carboxylic acid {5′-chloro-6-[(tetrahydro-pyran-4-ylmethyl)-amino]-[2,4′]bipyridinyl-2′-yl}-amide]	16
O=C(Nc1cc(-c2cccc(NCC3CCOCC3)n2)c(Cl)cn1)[C@@H]1CC[C@H](C(F)(F)F)NC1 (racemic) [Example 160, (3R,6R)-/(3S,6S)-6-Trifluoromethyl-piperidine-3-carboxylic acid {5′-chloro-6-[(tetrahydro-pyran-4-ylmethyl)-amino]-[2,4′]bipyridinyl-2′-yl}-amide]	11

Next, values leading:

IC50 [nM]	Structure (SMILES)
1	COC1(CNc2nc(-c3cc(NC(=O)C4CCC(C)NC4)ncc3Cl)ccc2F)CCOCC1 (centres unmarked) [Example 261, 6-Methyl-piperidine-3-carboxylic acid {5′-chloro-5-fluoro-6-[(4-methoxy-tetrahydro-pyran-4-ylmethyl)-amino]-[2,4′]bipyridinyl-2′-yl}-amide]
2	COCCOC[C@@H]1C[C@@H](C(=O)Nc2cc(-c3cccc(NCC4(C)CCOCC4)n3)c(Cl)cn2)CN1 [Example 258, (3R,5S)-5-(2-Methoxy-ethoxymethyl)-pyrrolidine-3-carboxylic acid {5′-chloro-6-[(4-methyl-tetrahydro-pyran-4-ylmethyl)-amino]-[2,4′]bipyridinyl-2′-yl}-amide]
1	CO[C@H]1CNC[C@@H]1C(=O)Nc1cc(-c2ccc(F)c(NCC3CCOCC3)n2)c(Cl)cn1 [Example 144, (3S,4R)-4-Methoxy-pyrrolidine-3-carboxylic acid {5′-chloro-5-fluoro-6-[(tetrahydro-pyran-4-ylmethyl)-amino]-[2,4′]bipyridinyl-2′-yl}-amide]
< 8	O=C(Nc1cc(-c2cccc(NCC3CCOCC3)n2)c(Cl)cn1)C1CCCC1 [Example 65, Cyclopentanecarboxylic acid {5′-chloro-6-[(tetrahydro-pyran-4-ylmethyl)-amino]-[2,4′]bipyridinyl-2′-yl}-amide]
1	COC[C@@H]1C[C@@H](C(=O)Nc2cc(-c3nc(NCC4CCOCC4)ccc3Cl)c(Cl)cn2)CN1 [Example 185, (3R,5S)-5-Methoxymethyl-pyrrolidine-3-carboxylic acid {3,5′-dichloro-6-[(tetrahydro-pyran-4-ylmethyl)-amino]-[2,4′]bipyridinyl-2′-yl}-amide]
1	CC[C@H]1CC[C@@H](C(=O)Nc2cc(-c3ccc(F)c(NCC4CCOCC4)n3)c(Cl)cn2)CN1 (racemic) [Example 252, (3R,6S)-/(3S,6R)-6-Ethyl-piperidine-3-carboxylic acid {5′-chloro-5-fluoro-6-[(tetrahydro-pyran-4-ylmethyl)-amino]-[2,4′]bipyridinyl-2′-yl}-amide]
1	C[C@@H]1CC[C@@H](C(=O)Nc2cc(-c3ccc(F)c(NCC4CCOCC4)n3)c(Cl)cn2)CN1 (single isomer, unassigned) [Example 189]
< 8	CC1(C)CC(CNc2cccc(-c3cc(NC(=O)[C@H]4CNCCO4)ncc3Cl)n2)CCO1 (stereo partly drawn) [Example 120, (R)-Morpholine-2-carboxylic acid {5′-chloro-6-[(2,2-dimethyl-tetrahydro-pyran-4-ylmethyl)-amino]-[2,4′]bipyridinyl-2′-yl}-amide]
1	CC(C)S(=O)(=O)N1CCC[C@H](C(=O)Nc2cc(-c3nc(NC[C@@H]4CCOC(C)(C)C4)ccc3Cl)c(Cl)cn2)C1 (single isomer, unassigned) [Example 172]
1	O=C(Nc1cc(-c2nc(NCC3CCOCC3)ccc2Cl)c(Cl)cn1)C1CNCCOC1 (centres unmarked) [Example 191, [1,4]Oxazepane-6-carboxylic acid {3,5′-dichloro-6-[(tetrahydro-pyran-4-ylmethyl)-amino]-[2,4′]bipyridinyl-2′-yl}-amide]
7	COC[C@H]1CC[C@H](C(=O)Nc2cc(-c3cccc(NCC4CCOCC4)n3)c(Cl)cn2)CN1 (single isomer, unassigned) [Example 236]

Same assay, conditions: Cdk9_cyclinT1_IC50, generated using one of the two Cdk9/cyclinT1 assays (IMAP or Alpha Screen), not specified per value; ATP 6 uM

Structure (SMILES)	IC50 [nM]
CC1(C)CC(CNc2cnc(Cl)c(-c3cc(NC(=O)[C@H]4CNCCO4)ncc3Cl)c2)CCO1 (stereo partly drawn) [Example 315, (R)-Morpholine-2-carboxylic acid {2,5′-dichloro-5-[(2,2-dimethyl-tetrahydro-pyran-4-ylmethyl)-amino]-[3,4′]bipyridinyl-2′-yl}-amide]	4
COc1ccncc1-c1cc(NC(=O)[C@@H]2CCCNC2)ncc1Cl [Example 306, (R)-Piperidine-3-carboxylic acid (5′-chloro-4-methoxy-[3,4′]bipyridinyl-2′-yl)-amide]	46
